Patent US9763963B2, “Topically active steroids for use in interstitial pulmonary fibrosis” (Soligenix, Inc., priority 2008, dated 2017)
Several values for one entry are separate records, joined by “and”; a condition that tells them apart may be missing. Equal entries are not always repeated.

What was measured:
[1] = test system: noninfectious pulmonary complications; experiment: noninfectious pulmonary complications after randomization (record review); format: in vivo, human
Excerpt: (§1) While blinded to randomization assignment, investigators reviewed all patients' pulmonary radiologic records accumulated from the time of randomization to one year after transplantation. The medical records of all patients with abnormal pulmonary radiological findings were reviewed to determine whether the pulmonary disease was a clinically significant noninfectious or infectious syndrome. Clinically significant noninfectious pulmonary syndromes included idiopathic pneumonia syndrome (IPS), defined as widespread alveolar injury in the absence of active lower respiratory tract infection after HCT (Freudenberger T D et al., Blood, 2003; 102:3822-3828, diffuse alveolar hemorrhage (DAH), defined as IPS with bronchioalveolar lavage showing progressively bloodier return, or biopsy-proven cryptogenic organizing pneumonia (COP) otherwise known as bronchiolitis obliterans organizing pneumonia (BOOP). Clinically significant pulmonary infection required microbiologic documentation of an infectious agent in the respiratory tract via bronchoscopy or resolution of pulmonary abnormalities after empirical antibiotic therapy with no addition of immunosuppressive agents.

pulmonary infection = experiment: pulmonary infections after randomization (record review); format: in vivo, human
Excerpt: as §1

[2] = test system: gastrointestinal graft-versus-host disease (GVHD); conditions: cited from earlier work
[3] = bioavailability study of oral BDP, given orally and intravenously to 12 healthy subjects
[4] = test system: pulmonary function (FVC, FEV1, TLC, DLCO); experiment: pulmonary function testing after allogeneic HCT, oral BDP versus placebo; format: in vivo, human
Excerpt: Patients whose symptoms were controlled at study day ten continued on study drug while the prednisone dose was rapidly tapered. Patients whose symptoms required additional prednisone were considered treatment failures. Study drug was discontinued on the day of treatment failure. The duration of treatment with study drug was 30 days with a 10-day follow-up period in the first trial and 50 days with a 30-day follow-up period in the second trial.
Pulmonary function assessments included forced vital capacity (FVC), one-second forced expiratory volume (FEV1), total lung capacity (TLC), and carbon monoxide diffusion capacity (DLCO), which was adjusted for hemoglobin level at the time PFTs were obtained. All PFT values were expressed as a percent of the predicted value calculated according to published equations (Crapo R O et al., Am Rev Respir Dis, 1981; 123:659-664; Crapo R O et al., Am Rev Respir Dis, 1981; 123:185-189). Pretransplantation and Day 80 PFTs were obtained, regardless of the presence or absence of symptoms. After discharge, patients were encouraged to return at one year after transplantation, at which time another PFT was obtained. For purposes of the current study, PFTs performed between days 60 and 100 were considered as valid for the Day 80 PFT and tests performed between days 265 and 465 as valid for the one-year PFT. Change in lung function was assessed by comparing PFT parameters performed prior to start of conditioning to those obtained post-transplantation at Day 80 and one year. Analysis of change in lung function was done on an intent-to-treat basis, by randomization assignment to oral BDP or placebo, with maintenance of the study blind.

[5] = BDP and 17-BMP in plasma of right atrial blood after oral BDP; conditions: oral BDP 2 mg
Method: Pharmacokinetic parameters were calculated using WinNonlin v. […] Plasma concentration-time data were plotted and non-compartmental parameters were calculated using the linear trapezoidal rule. Estimates for half-lives were obtained using regression analysis by specifying an appropriate range of time points for the most linear portions of the log concentration-linear time data.

[6] = pre-HCT baseline to transplant day 80

In the case of beclomethasone 17,21-dipropionate [BDP], the noninfectious events ([1]; after Day 200) was “four”, the “cases of noninfectious pulmonary complications” value ([1]; first 200 days after randomization, 60 patients, placebo four) was “no cases” and the “day of noninfectious event” value ([1]; in order: COP/BOOP, IPS, bronchiolitis obliterans syndrome, DAH) was 207 days and 212 days and 244 days and 269 days. For the same molecule, the “cases of pulmonary infection” value (pulmonary infection; first 200 days after randomization) was 6, the “cases of pulmonary infection” value (pulmonary infection; first year after randomization, 60 patients, placebo 11) was 8 and the “share of first-year pulmonary infections that occurred in the first 200 days” value (pulmonary infection; in vivo) was 75%. For the same molecule, the “patients who developed noninfectious pulmonary infiltrative disorders” value ([2]; 80-day study period, placebo 12/67 (18%)) was 0/62, the multiple bacteremic episodes ([2]; most recent trial, placebo 9%) was “none” and the fungal infections ([2]; most recent trial, placebo 14%) was 7%. For the same molecule, the cytomegalovirus reactivations ([2]; most recent trial, placebo 39%) was 28%, the “reduction in mortality risk” value ([2]; one-year post-randomization) was 45% and the “intravenous dexamethasone dose of equivalent systemic exposure” value ([3]; oral BDP 2 mg) was “less than 1 mg”. For the same molecule, the “oral prednisone dose of equivalent systemic exposure” value ([3]; oral BDP 2 mg) was 2.5 mg, the “DLCO: mean decrease from baseline to one year” value ([4]; 32 patients with data, placebo 15.27%, p=0.11) was 7.67% and the “DLCO, pulmonary function at one year” value ([4]; mean, n = 33) was 78.1% of predicted normal values. The “FEV1, pulmonary function at one year” value ([4]; mean, n = 33) was 85.9% of predicted normal values, the “FVC, pulmonary function at one year” value ([4]; mean, n = 33) was 89.4% of predicted normal values and the “TLC, pulmonary function at one year” value ([4]; mean, n = 33) was 95.7% of predicted normal values. The “DLCO, pulmonary function at Day 80” value ([4]; mean, n = 54) was 86.0% of predicted normal values, the “TLC, pulmonary function at Day 80” value ([4]; mean, n = 55) was 96.9% of predicted normal values and the “FEV1, pulmonary function at Day 80” value ([4]; mean, n = 56) was 90.3% of predicted normal values. The “FVC, pulmonary function at Day 80” value ([4]; mean, n = 56) was 93.8% of predicted normal values, the “FEV1: mean change” value ([4]; pre-HCT baseline to day 80, percent of predicted, range −22, +34, p 0.48) was −0.05 and the “TLC: mean change” value ([4]; pre-HCT baseline to day 80, percent of predicted, range −25, +57, p 0.23) was “+1.41”. For the same molecule, the “FVC: mean change” value ([4]; pre-HCT baseline to day 80, percent of predicted, range −30, +35, p 0.26) was “+0.34”, the “FEV1: % of patients who experienced a decrease” value [4, 6] was “(50) %” and the “FVC: % of patients who experienced a decrease” value [4, 6] was “(50) %”. The “TLC: % of patients who experienced a decrease” value [4, 6] was “(58) %”, the “DLCO: N, proportion of patients who experienced a decrease” value ([4]; pre-HCT baseline to transplant day 80, p 0.02) was 27 of 49 and 27/49 and the “FVC: N, proportion of patients who experienced a decrease” value ([4]; pre-HCT baseline to transplant day 80, p 0.66) was 25/50. For the same molecule, the “FEV1: N, proportion of patients who experienced a decrease” value ([4]; pre-HCT baseline to transplant day 80, p 0.83) was 25/50 and the “TLC: N, proportion of patients who experienced a decrease” value ([4]; pre-HCT baseline to transplant day 80, p 0.88) was 29/50.
In the case of `CCC(=O)O[C@]1(C(=O)CO)[C@@H](C)C[C@H]2[C@@H]3CCC4=CC(=O)C=C[C@]4(C)[C@@]3(Cl)[C@@H](O)C[C@@]21C` [17-BMP, 17-beclomethasone monopropionate], the “time of peak concentration in right atrial blood, median” value ([5]; study Day 50, four patients) was 1.5 h, the median half-life ([5]; study Day 50, range 3.1-6.8) was 6.3 h and the “median Cm” value ([5]; study Day 50, range 632-3701) was 1738 pg/mL. The total oral bioavailability ([3]; active metabolite after oral BDP, unpublished data) was 21-41%.
